Measured values taken from paper PMC3989164, “Multi-Kinase Inhibitor C1 Triggers Mitotic Catastrophe of Glioma Stem Cells Mainly through MELK Kinase Inhibition” (PLoS ONE, 2014).

Biological target: T1, maternal embryonic leucine-zipper kinase (MELK) (Homo sapiens, UniProt Q14680)
T1 construct: recombinant MELK protein
Assay: in vitro kinase assay with recombinant MELK, ten-dose curve
Type: biochemical

T1 sequence (Q14680 whole entry): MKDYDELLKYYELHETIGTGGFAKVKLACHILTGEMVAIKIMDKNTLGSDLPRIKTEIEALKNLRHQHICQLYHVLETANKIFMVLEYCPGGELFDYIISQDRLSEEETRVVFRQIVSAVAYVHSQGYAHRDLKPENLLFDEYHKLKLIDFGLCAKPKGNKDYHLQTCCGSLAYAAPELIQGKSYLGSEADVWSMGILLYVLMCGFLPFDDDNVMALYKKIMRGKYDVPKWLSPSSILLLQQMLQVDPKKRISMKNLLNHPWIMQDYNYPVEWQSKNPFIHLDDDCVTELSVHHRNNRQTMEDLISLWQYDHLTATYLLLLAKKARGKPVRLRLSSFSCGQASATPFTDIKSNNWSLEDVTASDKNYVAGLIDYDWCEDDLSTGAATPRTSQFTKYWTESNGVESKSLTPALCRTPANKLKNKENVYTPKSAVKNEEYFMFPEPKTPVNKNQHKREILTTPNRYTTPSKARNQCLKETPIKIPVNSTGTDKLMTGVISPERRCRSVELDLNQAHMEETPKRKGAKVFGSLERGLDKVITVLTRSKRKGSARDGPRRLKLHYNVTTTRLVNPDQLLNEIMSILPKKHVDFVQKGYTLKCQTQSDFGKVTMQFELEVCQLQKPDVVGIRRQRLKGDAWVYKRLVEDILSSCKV

Question: For CCc1c[nH]c(=O)c2c1[nH]c1ccc3cc(OC)ccc3c12 [C1, Compound 1], which IC50 is on record?
Answer: 42 nM
